Test results from patent US7238377B2, “Use of an oil of the gourd family for inhibiting 5 alpha-reductase activity” (Laboratoires Expanscience, priority 2001, dated 2007).
Values joined by “and” are separate entries in the source; they are usually repeats but may differ in a detail not shown here. Equal entries are not always repeated. Marks after values point to notes of the source that are not given here.

Test system: 5α-reductase
Test: In vitro evaluation of 5α-reductase activity: conversion of testosterone to 5α-dihydrotestosterone in normal human dermal fibroblast cultures
Assay type: cell-based
Settings: finasteride 30 ng/ml
Source text: In vitro evaluation of the 5α-reductase activity of the balsam pear oil on the conversion of testosterone to 5α-dihydrotestosterone in normal human dermal fibroblast cultures
It is proposed to evaluate the effect of the solid oil (butter) extracted from seeds of balsam pear (Momordica charantia), extracted with solvent (hexane), on 5α-reductase activity. An in vitro model of normal human dermal fibroblast cultures was selected.
The balsam pear oil was provided by the Laboratoires Pharmascience and was stored at +4° C. until the time it was used. The effects of the test product were compared with those obtained in the presence of finasteride, used as reference product (finasteride, principle active agent of the tablets CHIBRO-PROSCAR: MERCK SHARP & DOHME CHIBRET).
The radioactive testosterone (labeled with tritium at positions 1, 2, 6 and 7, specific activity 95 Ci/mmol) was provided by AMERSHAM, the nonradiolabeled testosterone was provided by SIGMA.
The fibroblast culture medium (FCM) consisted of MEM/M199 (3:1, v/v) supplemented with penicillin (50 IU/ml), streptomycin ([…]), sodium bicarbonate (0.2%, w/v) and FCS (10%, v/v).
The test system consisted of normal human dermal fibroblasts cultured in monolayer. The fibroblasts were isolated from a residue of an abdominoplasty carried out on a person (subject No. i0006). The cells were used at the third passage; they were cultured, until the monolayers reached confluency, in the FCM medium at 37° C. in a humid atmosphere containing 5% CO2.
The fibroblast incubation medium (FIM) consisted of FCM supplemented with tritiated testosterone (1.6×10^−7 M, i.e. 6.32 μCi/ml) and nonradiolabeled testosterone (3.84×10^−6 M).
The finasteride was extracted from the tablets by grinding, stirring in DMSO, centrifugation, and then collection of the supernatant (theoretical concentration of this solution: 1 mg/ml of finasteride), which was tested at 30 ng/ml. […]
The migration solvent was a mixture of dichloromethane and ether (7:3, v/v). At the end of migration, the silica plates were read using a BERTHOLD radioactivity scanner.
Comparison of the Rf (relative retention factor) values determined for the standards with those obtained for the various radioactive metabolites made it possible to identify these metabolites.
The metabolization of the testosterone to 5α-dihydro-testosterone under the various experimental conditions was calculated; the results (areas of the 5α-dihydro-testosterone peaks counted by the BERTHOLD scanner) are expressed in pmol of 5α-DHT formed per […]. They have also been expressed as percentage of the 5α-reductase activity present in the “control cells” group. […]

CC(C)(C)NC(=O)[C@H]1CC[C@H]2[C@@H]3CC[C@H]4NC(=O)C=C[C@]4(C)[C@H]3CC[C@]12C [Finasteride, finasteride]
pmol of 5α-DHT/μg of DNA (individual cultures) (2 h preincubation, 24 h incubation, triplicate values, control cells 2.68, 1.91, 1.56): 0.76 pmol of 5α-DHT/μg of DNA and 0.48 pmol of 5α-DHT/μg of DNA and 0.62 pmol of 5α-DHT/μg of DNA
% control (5α-reductase activity) (24 h incubation, control cells = 100): 30%
pmol of 5α-DHT/μg of DNA, Mean (24 h incubation, control cells mean 2.05, p<0.05 vs control): 0.62** pmol of 5α-DHT/μg of DNA
inhibition of the 5α-reductase activity (p<0.05): 70%
